Literature values, collected in patent US5780243A, “Methods for the quantitative analysis of organic compounds” (Thaco Research, Ltd., priority 1996, dated 1998).

## CNC1C(O)C(NC)C2OC3(O)C(=O)CC(C)OC3OC2C1O (stereo not shown) [spectinomycin, decahydro-4a,7,9-trihydroxy-2-methyl-6,8-bis(methylamino)-4H-pyrano[2,3-b][1,4]benzodioxin-4-one]
  solubility in organic solvents: virtual insolubility
